# Measurements as given in patent US12590062B2, “PD-1/PD-L1 inhibitors” (Gilead Sciences, Inc., priority 2017, dated 2026).
# Tests used:
# PD-L1 = target: T1, PD-L1 (Homo sapiens, UniProt Q9NZQ7); experiment: PD-L1/PD-L1 dimerization biochemical protein-protein interaction assay (ALPHA); format: binding; conditions: compound-induced PD-L1 dimerization, head prints '1 nM' (0.5 nM His-tagged PD-L1 and 0.5 nM FLAG-tagged PD-L1), read-out: AC50 PDL1 Dimer Alpha 1 nM
# T1 construct: determine if they can specifically dimerize the extracellular domains of PD-L1
# Protocol: PD-L1/PD-L1 Dimerization Biochemical Protein-Protein Interaction Assay:
# Compounds were tested in biochemical protein-protein interaction assays to determine if they can specifically dimerize the extracellular domains of PD-L1. Dimerization of the proteins (His-tagged PD-L1 and FLAG-tagged PD-L1) is measured using a bead based Amplified Luminescent Proximity Homogeneous Assay (ALPHA) platform. […] Assays are performed in 25 mM Hepes (pH 7.4), 150 mM NaCl, 3.4 mM EDTA, 0.005% Tween 20, and 0.01% BSA. Final protein concentration in the assays were 0.5 nM (His tagged PD-L) and 0.5 nM (FLAG tagged PD-L1). After an assay reaction time of 2 hours at 25° C., 20 μg/mL (final assay concentration) ALPHA assay acceptor beads (anti-His coated) were added and incubated for 60 minutes at 25° C. Binding was measured following a final 60 minute incubation with 40 μg/mL (final assay concentration) ALPHA assay donor beads (anti-FLAG coated). AC50 values were calculated from the fit of the dose-response curves to a four-parameter equation (Table 3).
# PD-1/PD-L1 = PD-1/PD-L1 (Homo sapiens, UniProt Q9NZQ7); experiment: PD-1/PD-L1 biochemical protein-protein interaction assay (ALPHA); format: binding; conditions: 0.3 nM His tagged PD-L1, 2.5 nM biotinylated Fc-PD-1, 60 minutes at 25° C., read-out: IC50 PD-L1-PD-1 Alpha IC50-mono PD-L1-fcP-D1
# Method in brief: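 ALPHA bead proximity assay of extracellular domains: 0.3 nM His-PD-L1 with 2.5 nM biotinylated Fc-PD-1 in 25 mM Hepes pH 7.4, 150 mM NaCl, 3.4 mM EDTA, 0.005% Tween 20, 0.01% BSA, 60 min at 25 °C. Anti-His acceptor and streptavidin donor beads added; IC50 from four-parameter fit of signal loss.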
# PD-1/PD-L1 interaction = target: T2, PD-1/PD-L1 interaction (Homo sapiens, UniProt Q9NZQ7); experiment: PD-1/PD-L1 NFAT reporter co-culture assay; format: cell-based; conditions: Jurkat PD-1 NFAT-luciferase cells co-cultured with aAPC-PD-L1 CHO cells, 6 hrs at 37° C.; read-out: EC50 NFAT Luciferase
# T2 construct: expressed in transfected cells; host or cells: CHO cells (aAPC-PD-L1) co-cultured with Jurkat cells overexpressing PD-1 and an NFAT-luciferase reporter
# Method in brief: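 Compounds are scored by restoration of NFAT-luciferase signal in PD-1-expressing Jurkat cells cultured 6 h at 37 °C on CHO cells presenting anti-CD3 and PD-L1; EC50 values derive from four-parameter curve fitting.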
# PD-1/PD-L1, sequence (Q9NZQ7 19-238 limits assumed): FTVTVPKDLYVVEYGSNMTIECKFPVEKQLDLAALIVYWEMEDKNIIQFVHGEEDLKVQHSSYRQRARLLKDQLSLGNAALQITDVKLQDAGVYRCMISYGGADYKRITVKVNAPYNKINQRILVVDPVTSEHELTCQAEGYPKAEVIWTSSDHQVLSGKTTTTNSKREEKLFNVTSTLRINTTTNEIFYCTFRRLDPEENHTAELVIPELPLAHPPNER
# T1 sequence (Q9NZQ7 19-238 limits assumed): as above
# T1 sequence (Q9NZQ7 19-238 limits assumed): as above
# T2 sequence (Q9NZQ7 19-290): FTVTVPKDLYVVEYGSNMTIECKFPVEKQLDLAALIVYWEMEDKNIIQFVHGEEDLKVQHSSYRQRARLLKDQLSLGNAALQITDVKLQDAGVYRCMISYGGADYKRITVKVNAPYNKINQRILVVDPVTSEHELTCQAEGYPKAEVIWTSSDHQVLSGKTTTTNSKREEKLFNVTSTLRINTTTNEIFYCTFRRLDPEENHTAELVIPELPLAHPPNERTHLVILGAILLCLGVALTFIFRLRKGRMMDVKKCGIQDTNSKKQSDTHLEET
Structure (SMILES),AC50 (PD-L1) [nM],IC50 (PD-1/PD-L1) [nM],EC50 (PD-1/PD-L1 interaction) [nM]
"Cc1c(COc2cc(OCc3cncc(C#N)c3)c(CNC[C@@H](O)CC(=O)O)cc2Cl)cccc1-c1cccc(COc2cc(OCc3cncc(C#N)c3)c(CNC[C@@H](O)CC(=O)O)cc2Cl)c1C [Example 66, (3S,3′S)-4,4′-((((((2,2′-dimethyl-[1,1′-biphenyl]-3,3′-diyl)bis(methylene))bis(oxy))bis(5-chloro-2-((5-cyanopyridin-3-yl)methoxy)-4,1-phenylene))bis(methylene))bis(azanediyl))bis(3-hydroxybutanoic acid)]",370,0.4,338
"Cc1c(COc2nc(OCc3cccnc3)c(CNC[C@@H](O)CC(=O)O)cc2Br)cccc1-c1cccc(COc2nc(OCc3cccnc3)c(CNC[C@@H](O)CC(=O)O)cc2Br)c1C [Example 137, (3S,3′S)-4,4′-((((((2,2′-dimethyl-[1,1′-biphenyl]-3,3′-diyl)bis(methylene))bis(oxy))bis(5-bromo-2-(pyridin-3-ylmethoxy)pyridine-6,3-diyl))bis(methylene))bis(azanediyl))bis(3-hydroxybutanoic acid)]",195,0.6,1450
"N#Cc1cncc(COc2nc(O[C@H]3CCc4c(-c5cccc(-c6ccc(OCCNCCO)cc6)c5Cl)cccc43)c(Cl)cc2CNC[C@@H](O)CC(=O)O)c1 [Example 291, (S)-4-(((5-chloro-6-(((S)-4-(2-chloro-4′-(2-((2-hydroxyethyl)amino)ethoxy)-[1,1′-biphenyl]-3-yl)-2,3-dihydro-1H-inden-1-yl)oxy)-2-((5-cyanopyridin-3-yl)methoxy)pyridin-3-yl)methyl)amino)-3-hydroxybutanoic acid]",27.5,0.175,46

# Results, then the compound that gave them:
AC50 (PD-L1) [nM],IC50 (PD-1/PD-L1) [nM],EC50 (PD-1/PD-L1 interaction) [nM],Structure (SMILES)
≥ 10000,0.075,70,"CC(C)(NCc1cc(Cl)c(O[C@H]2CCc3c(-c4cccc(-c5ccc(S(N)(=O)=O)cc5)c4Cl)cccc32)nc1OCc1cncc(C#N)c1)C(=O)O [Example 289, (S)-2-(((5-chloro-6-((4-(2-chloro-4′-sulfamoyl-[1,1′-biphenyl]-3-yl)-2,3-dihydro-1H-inden-1-yl)oxy)-2-((5-cyanopyridin-3-yl)methoxy)pyridin-3-yl)methyl)amino)-2-methylpropanoic acid]"
25.1,0.068,311,"CN1CCCC1c1ccc(-c2cccc(-c3cccc4c3CC[C@@H]4Oc3nc(OCc4cncc(C#N)c4)c(CN[C@@](C)(CO)C(=O)O)cc3Cl)c2Cl)cc1 (stereo partly drawn) [Example 290, (2S)-2-(((5-chloro-6-(((1S)-4-(2-chloro-4′-(1-methylpyrrolidin-2-yl)-[1,1′-biphenyl]-3-yl)-2,3-dihydro-1H-inden-1-yl)oxy)-2-((5-cyanopyridin-3-yl)methoxy)pyridin-3-yl)methyl)amino)-3-hydroxy-2-methylpropanoic acid]"
230,0.509,615,"Cc1c(COc2cc(OCc3cncc(C#N)c3)c(CN[C@@](C)(CO)C(=O)O)cc2Cl)cccc1-c1cccc(-c2ccc(CC3CCCN3)cc2)c1C (stereo partly drawn) [Example 292, (2S)-2-((5-chloro-2-((5-cyanopyridin-3-yl)methoxy)-4-((2,2′-dimethyl-4″-(pyrrolidin-2-ylmethyl)-[1,1′:3′,1″-terphenyl]-3-yl)methoxy)benzyl)amino)-3-hydroxy-2-methylpropanoic acid]"
289,,319,"Cc1c(COc2cc(OCc3cncc(C#N)c3)c(CNC[C@@H](O)CC(=O)O)cc2Cl)cccc1-c1cccc(-c2ccc3sc(CNC[C@@H](O)CC(=O)O)nc3c2)c1C [Example 399, (S)-4-(((5-(3′-((4-((((S)-3-carboxy-2-hydroxypropyl)amino)methyl)-2-chloro-5-((5-cyanopyridin-3-yl)methoxy)phenoxy)methyl)-2,2′-dimethyl-[1,1′-biphenyl]-3-yl)benzo[d]thiazol-2-yl)methyl)amino)-3-hydroxybutanoic acid]"
